In the test the test system is RSV A2. In words: RSV antiviral cytopathic effect (CPE) assay. In kind it is cell-based. The settings on record: human respiratory syncytial virus, HEp-2, 120 h, HEp2 cells infected with RSV A2 (moi ~0.01), 5 days, MTT readout. The procedure:
Compounds of the invention were tested for their antiviral activity against respiratory syncytial virus. Cytopathic effect (CPE) assays were performed essentially as described in the literature (see for example Watanabe et al, 1994, J. Virological Methods, 48:257). Serial dilutions of the test compounds were made in 96 well plates. HEp2 cells (1.0×10^4 cells/well) were infected with RSV at a low multiplicity of infection (e.g. RSV A2 at an moi of ˜0.01) and added to plates to assess antiviral activity. Uninfected HEp2 cells were used to assess compound cytotoxicity. Assays were incubated for 5 days at 37° C. in a 5% CO2 atmosphere. The extent of CPE was determined via metabolism of the vital dye 3-(4,5-dimethylthiaxol-2-yl)-2,5-diphenyltetrazolium bromide (MTT). MTT (1 mg/ml) was added to each well and plates incubated for 2 hours incubation at 37° C. Wells were aspirated, iso-propanol (200 μL) was added and absorbance values read at 540/650 nm. Compound concentrations that inhibited CPE by 50% (EC50) and developed cytotoxicity (CC50) were calculated using non-linear regression analysis.
Representative mean EC50 values obtained are also provided. In the inventors' experience, replicate EC50 values usually fall within three standard deviations of the mean.
For orientation: Damage to the host cells serves as the signal in cytopathic effect assays.

The mark [1] stands for this setting: read-out: Activity Range (RSV A2 EC50).
[2] abbreviates: mean EC50, read-out: RSV A2 EC50.

For 37 compounds, EC50 results are on record in US8604034B2, “Substituted imidazo[1,2-α]pyrrolo[1,2-d]pyrazines for treating respiratory syncytial virus (RSV) infections” (Biota Scientific Management Pty Ltd., priority 2010, dated 2013).

Where two headings read alike, the source gives them in different places.

A word on the EC50: it is the midpoint of the concentration-response curve. On to `Cc1nocc1C(=O)N1CCN2C(=O)c3ccc(C)n3CC12c1ccc(CO)cc1` (centres unmarked) [Compound 153], for which the EC50 by setting is: under setting [1], < 49 nM; under setting [2], 6.2 nM.
For the compound `COc1ccc(C23Cn4cccc4C(=O)N2CCN3C(=O)c2nonc2C)cc1` (centres unmarked) [Compound 136], the concentration giving a half-maximal response (EC50) is, setting by setting: under setting [1], 500 to 10000 nM; under setting [2], 890 nM.
Regarding `Cc1cc2n(n1)CC1(c3ccc(Cl)cc3)N(C(=O)c3cccnc3)CCN1C2=O` (centres unmarked) [Compound 44], the EC50 under setting [1] is > 10000 nM.
As for `Cc1nocc1C(=O)N1CCN2C(=O)c3ccc(Cl)n3CC12C1CCOCC1` (centres unmarked) [Compound 81, 8-chloro-1-[(3-methyl-1,2-oxazol-4-yl)carbonyl]-10a-(tetrahydro-2H-pyran-4-yl)-2,3,10,10a-tetrahydro-1H,5H-imidazo[1,2-a]pyrrolo[1,2-d]pyrazin-5-one], the half-maximal effective concentration (EC50) is 50 to 99 nM under setting [1] and 67 nM under setting [2].
As to `Cc1nocc1C(=O)N1CCN2C(=O)c3cccn3CC12c1ccc(N2CCCC2)cc1` (centres unmarked) [Compound 36, 1-[(3-methyl-1,2-oxazol-4-yl)carbonyl]-10a-[4-(pyrrolidin-1-yl)phenyl]-2,3,10,10a-tetrahydro-1H,5H-imidazo[1,2-a]pyrrolo[1,2-d]pyrazin-5-one], the half-maximal effective concentration (EC50) under setting [1] fell in the range of 100 to 499 nM and the EC50 under setting [2] was found to be 480 nM.
Regarding `Cc1nocc1C(=O)N1CCN2C(=O)c3ccnn3CC12c1ccc(Cl)cc1` (centres unmarked) [Compound 72], the concentration for a half-maximal effect (EC50) was < 49 nM under setting [1] and 48 nM under setting [2].
For `Cc1ocnc1C(=O)N1CCN2C(=O)c3cccn3CC12c1ccc(Cl)cc1` (centres unmarked) [Compound 3], in that order: 100 to 499 nM and 140 nM.
Regarding `Cc1nocc1C(=O)N1CCN2C(=O)c3cccc(=O)n3CC12c1ccc(F)cc1` (centres unmarked) [Compound 148], the 50% effective concentration (EC50) runs as follows: under setting [1], < 49 nM; under setting [2], 38 nM.
As to `Cc1nocc1C(=O)N1CCN2C(=O)c3cccn3CC12c1ccc(OCCN2CCOCC2)cc1` (centres unmarked) [Compound 110, 1-[(3-methyl-1,2-oxazol-4-yl)carbonyl]-10a-{4-[2-(morpholin-4-yl)ethoxy]phenyl}-2,3,10,10a-tetrahydro-1H,5H-imidazo[1,2-a]pyrrolo[1,2-d]pyrazin-5-one], the EC50 reads like this: under setting [1], 500 to 10000 nM; under setting [2], 680 nM.
Consider `Cc1nocc1C(=O)N1CCN2C(=O)c3cccn3CC12c1ccc(F)cc1` (centres unmarked) [Compound 2], for which the concentration for a half-maximal effect (EC50) reads like this: under setting [1], < 49 nM; under setting [2], 21 nM.
Take `COc1ccc(C23Cn4cccc4C(=O)N2CCN3C(=O)c2ocnc2C)cc1` (centres unmarked) [Compound 55]: the EC50 was 500 to 10000 nM under setting [1] and 2500 nM under setting [2].
As to `O=C(c1cocn1)N1CCN2C(=O)c3cccn3CC12c1ccc(F)cc1` (centres unmarked) [Compound 7], the EC50 is, setting by setting: under setting [1], 100 to 499 nM; under setting [2], 410 nM.
As to `COc1ccc(C23Cn4cc(N)cc4C(=O)N2CCN3C(=O)c2conc2C)cc1` (centres unmarked) [Compound 111, 7-amino-10a-(4-methoxyphenyl)-1-[(3-methyl-1,2-oxazol-4-yl)carbonyl]-2,3,10,10a-tetrahydro-1H,5H-imidazo[1,2-a]pyrrolo[1,2-d]pyrazin-5-one], the concentration for a half-maximal effect (EC50) by setting is: under setting [1], > 10000 nM; under setting [2], 16000 nM.
In the case of `COc1ccc(C23Cn4cccc4C(=O)N2CCN3C(=O)c2ccoc2)cc1` (centres unmarked) [Compound 54], the EC50 was 500 to 10000 nM under setting [1] and 600 nM under setting [2].
On to `Cc1ccc(C23Cn4cc(-c5cnn(C)c5)cc4C(=O)N2CCN3C(=O)c2conc2C)nc1` (centres unmarked) [Compound 134], for which the EC50 by setting is: under setting [1], < 49 nM; under setting [2], 31 nM.
Taken in the same sequence, the figures for `Cc1nocc1C(=O)N1CCN2C(=O)c3ccc(-c4cnn(C)c4)n3CC12c1ccc(F)cc1` (centres unmarked) [Compound 96] were 100 to 499 nM and 150 nM.
With `Cc1nocc1C(=O)N1CCN2C(=O)c3cccn3CC12c1ccc2c(c1)CCO2` (centres unmarked) [Compound 57], the EC50 under setting [1] is < 49 nM and the EC50 under setting [2] worked out at 14 nM.
As to `COc1ccc(C23Cn4cc(-c5cnn(C(C)C)c5)cc4C(=O)N2CCN3C(=O)c2conc2C)cc1` (centres unmarked) [Compound 88], the EC50 is 50 to 99 nM under setting [1] and 65 nM under setting [2].
For `Cc1nocc1C(=O)N1CCN2C(=O)c3cccn3CC12c1ccc(O)nc1` (centres unmarked) [Compound 142, 10a-(6-hydroxypyridin-3-yl)-1-[(3-methyl-1,2-oxazol-4-yl)carbonyl]-2,3,10,10a-tetrahydro-1H,5H-imidazo[1,2-a]pyrrolo[1,2-d]pyrazin-5-one], in that order: 500 to 10000 nM and 6700 nM.
In the case of `Cc1cc2n(n1)CC1(c3ccc(Cl)cc3)N(C(=O)c3ccoc3)CCN1C2=O` (centres unmarked) [Compound 43], the 50% effective concentration (EC50) is 500 to 10000 nM under setting [1] and 3400 nM under setting [2].
Regarding `Cc1oncc1C(=O)N1CCN2C(=O)c3ccc(-c4ccncc4)n3CC12c1ccc(Cl)cc1` (centres unmarked) [Compound 32, 10a-(4-chlorophenyl)-1-[(5-methyl-1,2-oxazol-4-yl)carbonyl]-8-(pyridin-4-yl)-2,3,10,10a-tetrahydro-1H,5H-imidazo[1,2-a]pyrrolo[1,2-d]pyrazin-5-one], the concentration giving a half-maximal response (EC50) is 500 to 10000 nM under setting [1] and 690 nM under setting [2].
`Cc1cnc(C23Cn4cc(-c5cccnc5)cc4C(=O)N2CCN3C(=O)c2conc2C)cn1` (centres unmarked) [Compound 121, 1-[(3-methyl-1,2-oxazol-4-yl)carbonyl]-10a-(5-methylpyrazin-2-yl)-7-(pyridin-3-yl)-2,3,10,10a-tetrahydro-1H,5H-imidazo[1,2-a]pyrrolo[1,2-d]pyrazin-5-one]: the half-maximal effective concentration (EC50) was < 49 nM under setting [1] and 42 nM under setting [2].
With `COc1ccc(C23Cn4cccc4C(=O)N2CCN3C(=O)c2conc2C)cc1` (centres unmarked) [Compound 6], the 50% effective concentration (EC50) is, setting by setting: under setting [1], 50 to 99 nM; under setting [2], 52 nM.
Take `Cc1nocc1C(=O)N1CCN2C(=O)c3cc(-c4cccnc4)cn3CC12c1ccc(F)cc1` (centres unmarked) [Compound 98]: the EC50 is 50 to 99 nM under setting [1] and 69 nM under setting [2].
For `COc1ccc(C23Cn4cc(-c5cn(C)nc5C)cc4C(=O)N2CCN3C(=O)c2conc2C)cc1` (centres unmarked) [Compound 91], in that order: 100 to 499 nM and 140 nM.
Take `Cc1ccc([C@@]23Cn4cccc4C(=O)N2CCN3C(=O)c2conc2C)cn1` [Compound 77A, (10aS)-1-[(3-methyl-1,2-oxazol-4-yl)carbonyl]-10a-(6-methylpyridin-3-yl)-2,3,10,10a-tetrahydro-1H,5H-imidazo[1,2-a]pyrrolo[1,2-d]pyrazin-5-one]: the concentration for a half-maximal effect (EC50) runs as follows: under setting [1], 500 to 10000 nM; under setting [2], 7300 nM.
`CCN(CC)S(=O)(=O)c1ccc(C23Cn4cccc4C(=O)N2CCN3C(=O)c2conc2C)cc1` (centres unmarked) [Compound 10]: the EC50 under setting [1] is > 10000 nM.
As for `COc1ccc(C23Cn4c(ccc4-c4cnn(C)c4)C(=O)N2CCN3C(=O)c2conc2C)cc1` (centres unmarked) [Compound 34], the EC50 is 100 to 499 nM under setting [1] and 380 nM under setting [2].
Regarding `Cc1nocc1C(=O)N1CCN2C(=O)c3cccn3CC12c1ccccn1` (centres unmarked) [Compound 103, 1-[(3-methyl-1,2-oxazol-4-yl)carbonyl]-10a-(pyridin-2-yl)-2,3,10,10a-tetrahydro-1H,5H-imidazo[1,2-a]pyrrolo[1,2-d]pyrazin-5-one], the EC50 under setting [1] lay in the range of 100 to 499 nM and the EC50 under setting [2] came to 380 nM.
Taken in the same sequence, the figures for `O=C(c1ccoc1)N1CCN2C(=O)c3cccn3CC12c1ccc(Cl)cc1` (centres unmarked) [Compound 15] were 50 to 99 nM and 56 nM.
Regarding `COc1ccc(C23Cn4c(C)ccc4C(=O)N2CCN3C(=O)c2conc2C)cc1` (centres unmarked) [Compound 107, 10a-(4-methoxyphenyl)-8-methyl-1-[(3-methyl-1,2-oxazol-4-yl)carbonyl]-2,3,10,10a-tetrahydro-1H,5H-imidazo[1,2-a]pyrrolo[1,2-d]pyrazin-5-one], the concentration for a half-maximal effect (EC50) is < 49 nM under setting [1] and 14 nM under setting [2].
With `Cc1cc2n(n1)CC1(c3ccc(Cl)cc3)N(C(=O)NCCc3ccccc3)CCN1C2=O` (centres unmarked) [Compound 41, 10a-(4-chlorophenyl)-7-methyl-5-oxo-N-(2-phenylethyl)-2,3,10,10a-tetrahydro-1H,5H-imidazo[1,2-a]pyrazolo[1,5-d]pyrazine-1-carboxamide], the EC50 under setting [1] was > 10000 nM.
`Cc1nocc1C(=O)N1CCN2C(=O)c3ccc(Cl)n3CC12c1ccc(F)cc1` (centres unmarked) [Compound 80]: the EC50 by setting is: under setting [1], < 49 nM; under setting [2], 3.1 nM.
`Cc1nocc1C(=O)N1CCN2C(=O)c3cc(-c4cccnc4)cn3CC12c1ccc(CO)cc1` (centres unmarked) [Compound 95, 10a-[4-(hydroxymethyl)phenyl]-1-[(3-methyl-1,2-oxazol-4-yl)carbonyl]-7-(pyridin-3-yl)-2,3,10,10a-tetrahydro-1H,5H-imidazo[1,2-a]pyrrolo[1,2-d]pyrazin-5-one]: the 50% effective concentration (EC50) was 100 to 499 nM under setting [1] and 160 nM under setting [2].
Taken in the same sequence, the figures for `COc1ccc(C23Cn4cc(F)cc4C(=O)N2CCN3C(=O)c2conc2C)cc1` (centres unmarked) [Compound 65] were 50 to 99 nM and 66 nM.
Turning to `CCC12Cn3cccc3C(=O)N1CCN2C(=O)c1conc1C` (centres unmarked) [Compound 20], the EC50 under setting [1] is 500 to 10000 nM and the EC50 under setting [2] worked out at 6700 nM.
For `Cc1nocc1C(=O)N1CCN2C(=O)c3cccn3CC12C1CCOCC1` (centres unmarked) [Compound 50, 1-[(3-methyl-1,2-oxazol-4-yl)carbonyl]-10a-(tetrahydro-2H-pyran-4-yl)-2,3,10,10a-tetrahydro-1H,5H-imidazo[1,2-a]pyrrolo[1,2-d]pyrazin-5-onel], in that order: 500 to 10000 nM and 1420 nM.
